Measured values taken from ChEMBL document CHEMBL1909046, “DrugMatrix in vitro pharmacology data”.

Legend:
[1] = DRUGMATRIX: Calcium Channel Type L, Dihydropyridine radioligand binding (ligand: [3H] Nitrendipine); type: cell membranes, Rattus norvegicus, Wistar, Cerebral cortex, Membrane; settings: Not Active = under 50% inhibition at 10 µM
[2] = molecular target: T1, 5-hydroxytryptamine receptor 2C (Homo sapiens, UniProt P28335); assay: DRUGMATRIX: Serotonin (5-Hydroxytryptamine) 5-HT2C radioligand binding (ligand: [3H] Mesulergine); type: cell membranes, CHO-K1, Membrane; settings: cho-k1; Not Active = under 50% inhibition at 10 µM
T1 sequence (P28335 whole entry): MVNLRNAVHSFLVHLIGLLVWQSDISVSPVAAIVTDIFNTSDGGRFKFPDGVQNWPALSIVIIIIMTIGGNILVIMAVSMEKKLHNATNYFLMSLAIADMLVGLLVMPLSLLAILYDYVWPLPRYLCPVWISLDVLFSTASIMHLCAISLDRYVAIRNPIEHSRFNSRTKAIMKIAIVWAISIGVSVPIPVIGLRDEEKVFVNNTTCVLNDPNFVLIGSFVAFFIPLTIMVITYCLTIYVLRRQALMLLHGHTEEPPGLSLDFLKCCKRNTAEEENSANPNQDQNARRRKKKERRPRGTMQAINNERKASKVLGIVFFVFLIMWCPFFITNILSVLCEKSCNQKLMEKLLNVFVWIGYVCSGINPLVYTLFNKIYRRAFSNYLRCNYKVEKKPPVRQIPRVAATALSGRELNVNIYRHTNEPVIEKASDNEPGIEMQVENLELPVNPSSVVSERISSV

[3] = DRUGMATRIX: GABAA, Muscimol, Central radioligand binding (ligand: [3H] Muscimol); type: cell membranes, Rattus norvegicus, Wistar, Brain, Membrane; settings: Not Active = under 50% inhibition at 10 µM
[4] = DRUGMATRIX: ATPase, Na+/K+ enzyme inhibition (substrate: ATP); type: tissue-based, Sus scrofa, Heart; settings: Not Active = under 50% inhibition at 10 µM
[5] = molecular target: Cytochrome P450 2D6 (Homo sapiens, UniProt P10635); settings: bti-tn-5b1-4; also: in other assays of this panel Not Active means under 50% inhibition at 10 µM
[6] = molecular target: T2, Calcitonin receptor (Homo sapiens, UniProt P30988); type: cell membranes, Membrane; settings: t47d; also: in other assays of this panel Not Active means under 50% inhibition at 10 µM
T2 sequence (P30988 whole entry): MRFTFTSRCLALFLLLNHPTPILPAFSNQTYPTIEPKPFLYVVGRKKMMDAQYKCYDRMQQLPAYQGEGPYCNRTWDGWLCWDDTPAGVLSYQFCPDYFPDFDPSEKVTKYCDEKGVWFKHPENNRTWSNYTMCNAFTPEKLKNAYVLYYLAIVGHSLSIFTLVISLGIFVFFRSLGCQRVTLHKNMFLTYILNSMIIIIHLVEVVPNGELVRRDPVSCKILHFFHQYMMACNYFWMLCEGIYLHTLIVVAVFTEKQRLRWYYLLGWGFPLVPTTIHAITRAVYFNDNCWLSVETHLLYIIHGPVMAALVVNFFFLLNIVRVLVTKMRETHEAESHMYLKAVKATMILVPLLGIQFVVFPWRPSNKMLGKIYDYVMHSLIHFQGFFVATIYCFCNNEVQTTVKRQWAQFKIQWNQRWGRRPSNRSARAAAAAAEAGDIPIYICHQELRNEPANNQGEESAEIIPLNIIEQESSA

[7] = DRUGMATRIX: Tumor Necrosis Factor (TNF), Non-Selective radioligand binding (ligand: [125I] TNF-alpha); type: cell membranes, Membrane; settings: u-937; Not Active = under 50% inhibition at 10 µM
[8] = molecular target: Matrix metalloproteinase-9 (Homo sapiens, UniProt P14780); type: cell-based;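 also: inhibition of isolated MMP-9 enzyme activity toward a synthetic peptide substrate, from the DrugMatrix protease screening panel; in other assays of this panel Not Active means under 50% inhibition at 10 µM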
[9] = molecular target: T3, Adenosine receptor A3 (Homo sapiens, UniProt P0DMS8); type: cell membranes, CHO-K1, Membrane; settings: cho-k1;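 also: radioligand binding assay with AB-MECA serving as the labeled ligand; in other assays of this panel Not Active means under 50% inhibition at 10 µM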
T3 sequence (P0DMS8 whole entry): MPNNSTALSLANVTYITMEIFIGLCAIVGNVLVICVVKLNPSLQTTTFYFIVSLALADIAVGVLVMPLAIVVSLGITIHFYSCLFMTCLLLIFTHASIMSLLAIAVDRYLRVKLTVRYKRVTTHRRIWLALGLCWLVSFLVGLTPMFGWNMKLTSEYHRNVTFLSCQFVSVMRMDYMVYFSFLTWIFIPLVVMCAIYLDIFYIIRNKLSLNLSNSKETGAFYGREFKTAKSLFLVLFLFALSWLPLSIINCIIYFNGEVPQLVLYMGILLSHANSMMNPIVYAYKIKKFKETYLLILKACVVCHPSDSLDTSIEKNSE

[10] = DRUGMATRIX: Phorbol Ester radioligand binding (ligand: [3H] PDBu); type: cell membranes, Mus musculus, ICR, Brain, Membrane; settings: Not Active = under 50% inhibition at 10 µM
[11] = molecular target: Cytochrome P450 2C9 (Homo sapiens, UniProt P11712); settings: bti-tn-5b1-4; also: in other assays of this panel Not Active means under 50% inhibition at 10 µM
[12] = molecular target: Sigma non-opioid intracellular receptor 1 (Homo sapiens, UniProt Q99720); assay: DRUGMATRIX: Sigma1 radioligand binding (ligand: [3H] Haloperidol); type: cell membranes, Jurkat, Membrane; settings: jurkat; Not Active = under 50% inhibition at 10 µM
[13] = DRUGMATRIX: Calcium Channel Type L, Phenylalkylamine radioligand binding (ligand: [3H] (-)-Desmethoxyverapamil (D-888)); type: cell membranes, Rattus norvegicus, Wistar, Brain, Membrane; settings: Not Active = under 50% inhibition at 10 µM
[14] = molecular target: T4, Alpha-1B adrenergic receptor (Rattus norvegicus, UniProt P15823); assay: DRUGMATRIX: Alpha-1B adrenergic receptor radioligand binding (ligand: prazosin); type: cell membranes, Wistar, Liver, Membrane; settings: Not Active = under 50% inhibition at 10 µM
T4 sequence (P15823 whole entry): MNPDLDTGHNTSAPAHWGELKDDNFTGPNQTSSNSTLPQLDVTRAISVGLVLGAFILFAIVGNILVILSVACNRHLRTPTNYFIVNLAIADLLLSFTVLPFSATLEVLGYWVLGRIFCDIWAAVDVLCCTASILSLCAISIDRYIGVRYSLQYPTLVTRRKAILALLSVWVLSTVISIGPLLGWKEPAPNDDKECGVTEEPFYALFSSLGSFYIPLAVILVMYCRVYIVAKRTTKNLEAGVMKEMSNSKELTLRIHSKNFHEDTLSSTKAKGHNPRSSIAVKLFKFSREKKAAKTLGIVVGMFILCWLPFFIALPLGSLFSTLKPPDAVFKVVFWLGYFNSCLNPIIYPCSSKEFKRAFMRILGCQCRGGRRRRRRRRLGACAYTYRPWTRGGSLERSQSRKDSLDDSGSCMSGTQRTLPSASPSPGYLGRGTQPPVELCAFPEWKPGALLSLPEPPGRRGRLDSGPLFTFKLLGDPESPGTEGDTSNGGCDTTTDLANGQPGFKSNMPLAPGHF

Chain of Cytochrome P450 2D6 (P10635 whole entry): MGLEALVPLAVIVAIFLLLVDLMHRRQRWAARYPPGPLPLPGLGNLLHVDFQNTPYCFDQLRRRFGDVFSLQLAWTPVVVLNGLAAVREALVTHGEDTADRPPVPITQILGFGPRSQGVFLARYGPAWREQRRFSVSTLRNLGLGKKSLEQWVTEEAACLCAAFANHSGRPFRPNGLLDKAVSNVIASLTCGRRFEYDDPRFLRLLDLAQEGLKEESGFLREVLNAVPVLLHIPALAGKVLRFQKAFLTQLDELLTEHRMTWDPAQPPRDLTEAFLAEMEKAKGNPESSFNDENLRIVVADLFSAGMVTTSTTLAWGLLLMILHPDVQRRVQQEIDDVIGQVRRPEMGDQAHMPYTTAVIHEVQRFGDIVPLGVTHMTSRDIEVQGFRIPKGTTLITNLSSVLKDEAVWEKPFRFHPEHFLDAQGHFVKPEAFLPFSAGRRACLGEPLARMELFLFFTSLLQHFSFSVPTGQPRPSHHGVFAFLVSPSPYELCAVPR
Chain of Cytochrome P450 2C9 (P11712 whole entry): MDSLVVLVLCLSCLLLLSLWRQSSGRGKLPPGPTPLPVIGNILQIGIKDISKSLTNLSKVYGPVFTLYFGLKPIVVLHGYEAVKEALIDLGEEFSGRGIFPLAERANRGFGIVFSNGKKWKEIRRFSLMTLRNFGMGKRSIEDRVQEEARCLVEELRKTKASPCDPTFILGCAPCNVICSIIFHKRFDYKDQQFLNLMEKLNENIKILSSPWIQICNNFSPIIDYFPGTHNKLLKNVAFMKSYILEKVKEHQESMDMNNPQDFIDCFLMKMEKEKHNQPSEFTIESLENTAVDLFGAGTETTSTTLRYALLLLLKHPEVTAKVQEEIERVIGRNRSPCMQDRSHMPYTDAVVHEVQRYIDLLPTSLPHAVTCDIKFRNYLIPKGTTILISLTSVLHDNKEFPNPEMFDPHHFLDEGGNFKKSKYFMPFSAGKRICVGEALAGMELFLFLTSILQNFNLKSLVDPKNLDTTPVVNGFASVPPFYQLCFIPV
Chain of Sigma non-opioid intracellular receptor 1 (Q99720 whole entry): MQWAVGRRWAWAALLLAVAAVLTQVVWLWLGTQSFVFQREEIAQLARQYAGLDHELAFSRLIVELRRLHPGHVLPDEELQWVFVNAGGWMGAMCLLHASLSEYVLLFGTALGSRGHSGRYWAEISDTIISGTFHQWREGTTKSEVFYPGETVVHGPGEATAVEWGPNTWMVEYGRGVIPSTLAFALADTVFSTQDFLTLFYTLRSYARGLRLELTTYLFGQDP
Chain of Matrix metalloproteinase-9 (P14780 whole entry): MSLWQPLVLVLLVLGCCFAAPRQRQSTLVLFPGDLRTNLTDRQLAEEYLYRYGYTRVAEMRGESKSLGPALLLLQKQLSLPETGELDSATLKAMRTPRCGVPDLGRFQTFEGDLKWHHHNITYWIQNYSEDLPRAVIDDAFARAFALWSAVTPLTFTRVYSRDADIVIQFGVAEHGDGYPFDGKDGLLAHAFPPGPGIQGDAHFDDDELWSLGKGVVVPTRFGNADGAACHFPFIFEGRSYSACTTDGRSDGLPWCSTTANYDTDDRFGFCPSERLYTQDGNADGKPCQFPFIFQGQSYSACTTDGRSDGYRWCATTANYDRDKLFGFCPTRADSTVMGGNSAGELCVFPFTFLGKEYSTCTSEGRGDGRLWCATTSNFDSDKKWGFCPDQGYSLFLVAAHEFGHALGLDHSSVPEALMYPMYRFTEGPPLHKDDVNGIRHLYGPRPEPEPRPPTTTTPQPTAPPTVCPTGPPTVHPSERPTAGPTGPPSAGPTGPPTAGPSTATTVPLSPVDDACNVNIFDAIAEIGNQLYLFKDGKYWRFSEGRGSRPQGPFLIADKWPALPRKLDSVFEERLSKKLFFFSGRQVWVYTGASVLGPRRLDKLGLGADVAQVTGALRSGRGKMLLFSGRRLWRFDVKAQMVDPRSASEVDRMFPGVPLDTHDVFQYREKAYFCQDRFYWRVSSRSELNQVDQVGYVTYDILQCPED

| Structure (SMILES) | IC50 [1] | Ki [1] | IC50 [2] | IC50 [3] | Ki [3] | IC50 [4] | Ki [4] | IC50 [5] | Ki [5] | IC50 [6] | IC50 [7] | Ki [7] | IC50 [8] | IC50 [9] | IC50 [10] | Ki [10] | IC50 [11] | Ki [11] | IC50 [12] | IC50 [14] | also measured |
| --- | --- | --- | --- | --- | --- | --- | --- | --- | --- | --- | --- | --- | --- | --- | --- | --- | --- | --- | --- | --- | --- |
| COCc1c(C(C)C)nc(C(C)C)c(/C=C/[C@@H](O)C[C@@H](O)CC(=O)O)c1-c1ccc(F)cc1 [CERIVASTATIN] | Not Active | Not Active | Not Active | Not Active | Not Active | Not Active | Not Active | Not Active | Not Active | Not Active | Not Active | Not Active | Not Active | Not Active | Not Active | Not Active | Not Active | Not Active | Not Active | Not Active | IC50 [13]: Not Active; Ki [13]: Not Active |
| CC(=O)O[C@]1(C(C)=O)CC[C@H]2[C@@H]3C=C(Cl)C4=CC(=O)CC[C@]4(C)[C@H]3CC[C@@]21C [CHLORMADINONE ACETATE] | Not Active | Not Active | Not Active | Not Active | Not Active |  |  | Not Active | Not Active | Not Active | Not Active | Not Active | Not Active | Not Active | Not Active | Not Active | Not Active | Not Active | Not Active | Not Active | IC50 ([4]; read-out: IC50): 4570 nM; IC50 [13]: Not Active; Ki [13]: Not Active |
| COC(=O)[C@H](c1ccccc1Cl)N1CCc2sccc2C1 [CLOPIDOGREL] | Not Active | Not Active | Not Active | Not Active | Not Active | Not Active | Not Active | Not Active | Not Active | Not Active | Not Active | Not Active | Not Active | Not Active | Not Active | Not Active | Not Active | Not Active | Not Active | Not Active | IC50 [13]: Not Active; Ki [13]: Not Active |
| C[C@]12CCC(=O)C=C1CC[C@@H]1[C@@H]2C(=O)C[C@@]2(C)[C@H]1CC[C@]2(O)C(=O)CO [CORTISONE] | Not Active | Not Active | Not Active | Not Active | Not Active | Not Active | Not Active | Not Active | Not Active | Not Active | Not Active | Not Active | Not Active | Not Active | Not Active | Not Active | Not Active | Not Active | Not Active | Not Active | IC50 [13]: Not Active; Ki [13]: Not Active |
| CC1=Nc2ccc(Cl)cc2S(=O)(=O)N1 [DIAZOXIDE] | Not Active | Not Active | Not Active | Not Active | Not Active | Not Active | Not Active | Not Active | Not Active | Not Active | Not Active | Not Active | Not Active | Not Active | Not Active | Not Active | Not Active | Not Active | Not Active | Not Active | IC50 [13]: Not Active; Ki [13]: Not Active |
| CC(=O)OCC(=O)[C@@]1(OC(C)=O)[C@@H](C)C[C@H]2[C@@H]3C[C@H](F)C4=CC(=O)C=C[C@]4(C)[C@@]3(F)[C@@H](O)C[C@@]21C [DIFLORASONE DIACETATE] | Not Active | Not Active | Not Active | Not Active | Not Active | Not Active | Not Active | Not Active | Not Active | Not Active | Not Active | Not Active | Not Active | Not Active | Not Active | Not Active | Not Active | Not Active | Not Active | Not Active | IC50 [13]: Not Active; Ki [13]: Not Active |
| COc1ccc([C@@H]2Sc3ccccc3N(CCN(C)C)C(=O)[C@@H]2OC(C)=O)cc1 [DILTIAZEM] | Not Active | Not Active | Not Active | Not Active | Not Active | Not Active | Not Active | Not Active | Not Active | Not Active | Not Active | Not Active | Not Active | Not Active | Not Active | Not Active | Not Active | Not Active | Not Active | Not Active | IC50 ([13]; read-out: IC50): 630 nM; Ki ([13]; read-out: Ki): 612 nM |
